Assay [1] concerns PolyAU double stranded RNA. Kind of assay: Fluorescence intercalator displacement (FID) assay, SYBR-safe probe. The settings on record: 20 μM compound, 30° C., lower % = stronger binding. As for the experimental part: (§1) The ability of compounds of the invention to bind to DNA and RNA was assessed using a fluorescence intercalator displacement assay. Genomic double stranded DNA (salmon) or PolyAU double stranded RNA is treated with probe molecule (Sybr-Safe) that increases its fluorescence upon binding to nucleic acids.
(§2) polyAU RNA (Polyadenylic acid—Polyuridylic acid sodium salt, double-stranded homopolymer, P1537, Merck) or genomic DNA (Deoxyribonucleic acid sodium salt from salmon testes, D1626, Merck) was dissolved in 1 mM pH 7.4 phosphate buffer (containing 0.27 mM potassium chloride, 13.7 mM sodium chloride) to a concentration of 1 mg/mL in, SybrSafe (SYBR® Safe DNA Gel Stain, ×10,000 in DMSO, S33102 Invitrogen) was used as supplied by the manufacturer in DMSO, and compounds of the invention were prepared as 10 mM stocks in DMSO. These stock solutions were diluted appropriately with each other and 1 mM phosphate buffer to give test solutions comprised of 20 μM compound of the invention, 12500-fold dilution of SybrSafe and 3.76 ng/mL RNA/DNA. Control solutions of RNA/DNA and SybrSafe, RNA/DNA, and SybrSafe at these concentrations were also prepared. Test and control solutions were heated to 30° C. and the fluorescence of each solution was measured using the SYBER filter setting of a StepOnePlus using melt analysis mode (StepOne Software v2.3). The reduction of fluorescence due to the binding of the compound of the invention to the RNA/DNA was calculated as a normalised percentage based on the fluorescence measured due to the control with SybrSafe and RNA/DNA as maximum and the control with only SybrSafe as minimum.
(§3) A reduction in normalised % is indicative of probe displacement and thus strong nucleic acid binding.

The test system of assay [2] is Genomic double stranded DNA (salmon). Described as above. The conditions noted are these: 20 μM compound, 30° C., lower % = stronger binding. How it is done:
as §1, §2, §3

Assay [3] relates to Staphylococcus aureus (ATCC 43300). The experiment in a line: Antibacterial MIC, broth microdilution (CLSI). It counts as cell-based. The settings on record: for MIC80: Staphylococcus aureus, ATCC43300, read-out: MIC80 S. aureus. In general terms: Broth dilution looks for growth in wells or tubes with falling amounts of substance.
Another assay relates to T. vaginalis. The experiment in a line: Trichomonas resorufin assay. It counts as cell-based. The conditions noted are these: Trichomonas vaginalis, read-out: IC50 T. vaginalis.
Assay [4] has as its system Escherichia coli (ATCC 25922). The experiment in a line: Antibacterial MIC, broth microdilution (CLSI). Type of assay: cell-based. The conditions noted are these: for MIC80: Escherichia coli, ATCC25922, read-out: MIC80 E. coli.
Assay [5] has as its system Enterococcus faecalis (ATCC 51299). Kind of assay: Antibacterial MIC, broth microdilution (CLSI). Type of assay: cell-based. The settings on record: for MIC80: Enterococcus faecalis, ATCC51299, read-out: MIC80 E. faecalis.

≈ marks a conversion by molar mass, not a printed value. A value given as a limit tells only on which side of the number the result lay.

In the case of `CC(C)NC(=O)c1cc(NC(=O)c2cc(NC(=O)c3ccc(/C=C/c4cnc5ccccc5c4)cc3)cn2C)cn1C` [IVa4, (E)-N-isopropyl-1-methyl-4-(1-methyl-4-(4-(2-(quinolin-3-yl)vinyl)benzamido)-1H-pyrrole-2-carboxamido)-1H-pyrrole-2-carboxamide], the “% Normalised Fluorescence with polyAU RNA” value in assay [1] came out at 81%. In addition, the “% Normalised Fluorescence with gDNA” value in assay [2] stood at 15%. Also, the MIC80 (commonly an inhibitory concentration at the 80% level, which refers to growth in some studies and to a panel of isolates in others) in assay [3] was less than 5 µM; in assay [4], more than 100 µM; in assay [5], 25 to 100 µM (≈ 14 to 56.1 µg/mL). In the assay with T. vaginalis, the 50% inhibitory concentration (IC50) (usually the concentration needed to halve the response being measured) is 5 to 50 µM.
For `CN(C)c1ccc(/C=C/c2ccc(C(=O)Nc3cc(C(=O)Nc4cc(C(=O)NCCCCN5CCCCC5)n(C)c4)n(C)c3)cn2)cc1` [IVa14, (E)-6-(4-(dimethylamino)styryl)-N-(1-methyl-5-((1-methyl-5-((4-(piperidin-1-yl)butyl)carbamoyl)-1H-pyrrol-3-yl)carbamoyl)-1H-pyrrol-3-yl)nicotinamide], in assay [1], the “% Normalised Fluorescence with polyAU RNA” value worked out at 12%. Besides, the “% Normalised Fluorescence with gDNA” value in assay [2] was 19%. Besides, the MIC80 in assay [3] is 5 to 25 µM (≈ 3.25 to 16.3 µg/mL); in assay [4] it was more than 100 µM; in assay [5], 25 to 100 µM (≈ 16.3 to 65.1 µg/mL).
Consider `CN(C)c1ccc(/C=C/c2ccc(C(=O)Nc3cc(C(=O)Nc4cc(C(=O)NCCCCN5CCCC5)n(C)c4)n(C)c3)cn2)cc1` [IVa15, (E)-6-(4-(dimethylamino)styryl)-N-(1-methyl-5-((1-methyl-5-((4-(pyrrolidin-1-yl)butyl)carbamoyl)-1H-pyrrol-3-yl)carbamoyl)-1H-pyrrol-3-yl)nicotinamide], for which, in assay [1], the “% Normalised Fluorescence with polyAU RNA” value came out at 8%. Further, the “% Normalised Fluorescence with gDNA” value in assay [2] stood at 15%. Besides, the results for the MIC80 in assay [3], in assay [4] and in assay [5] were more than 100 µM, more than 100 µM and 25 to 100 µM (≈ 15.9 to 63.7 µg/mL), respectively.
As to `CCNC(=N)CCNC(=O)c1cc(NC(=O)c2cc(NC(=O)c3ccc(/C=C/c4ccc(OC)cc4)cc3)cn2C)cn1C` [Ia20, (E)-N-(3-(ethylamino)-3-iminopropyl)-4-(4-(4-(4-methoxystyryl)benzamido)-1-methyl-1H-pyrrole-2-carboxamido)-1-methyl-1H-pyrrole-2-carboxamide], the “% Normalised Fluorescence with polyAU RNA” value in assay [1] is given as 6%. Moreover, the “% Normalised Fluorescence with gDNA” value in assay [2] was 3%. For the same compound, the values for the MIC80 in assay [3], in assay [4] and in assay [5] were 5 to 25 µM (≈ 2.98 to 14.9 µg/mL), 25 to 100 µM (≈ 14.9 to 59.6 µg/mL) and 5 to 25 µM (≈ 2.98 to 14.9 µg/mL), respectively.
Take `CC/N=C(/CCNC(=O)c1cc(NC(=O)c2cc(NC(=O)c3ccc(/C=C/c4ccc5nonc5c4)cc3)cn2C)cn1C)NCC` [Ia25, 4-(4-((E)-2-(benzo[c][1,2,5]oxadiazol-5-yl)vinyl)benzamido)-N-(5-(((Z)-3-(ethylamino)-3-(ethylimino)propyl)carbamoyl)-1-methyl-1H-pyrrol-3-yl)-1-methyl-1H-pyrrole-2-carboxamide]: the “% Normalised Fluorescence with polyAU RNA” value in assay [1] came out at 12%. For the same compound, the “% Normalised Fluorescence with gDNA” value in assay [2] was 28%. Further, the MIC80 in assay [3] was 25 to 100 µM (≈ 15.9 to 63.6 µg/mL); in assay [4] it was more than 100 µM; in assay [5] it was more than 100 µM.
In the case of `CONC(=N)CCNC(=O)c1cc(NC(=O)c2cc(NC(=O)c3ccc(/C=C/c4cnc5ccccc5c4)cc3)cn2C)cn1C` [Ia28, (E)-N-(3-imino-3-(methoxyamino)propyl)-1-methyl-4-(1-methyl-4-(4-(2-(quinolin-3-yl)vinyl)benzamido)-1H-pyrrole-2-carboxamido)-1H-pyrrole-2-carboxamide], in assay [1], the “% Normalised Fluorescence with polyAU RNA” value was found to be 66%. Besides, the “% Normalised Fluorescence with gDNA” value in assay [2] worked out at 34%. In addition, the MIC80 is less than 5 µM in assay [3], more than 100 µM in assay [4] and less than 5 µM in assay [5].
Take `[H]/N=C(\CCNC(=O)c1cc(NC(=O)c2cc(NC(=O)c3ccc(C=Cc4ccc5nonc5c4)cc3)cn2C)cn1C)NCCOCCOCCOC` [Ia40, (E)-4-(4-(2-(benzo[c][1,2,5]oxadiazol-5-yl)vinyl)benzamido)-N-(5-((12-imino-2,5,8-trioxa-11-azatetradecan-14-yl)carbamoyl)-1-methyl-1H-pyrrol-3-yl)-1-methyl-1H-pyrrole-2-carboxamide]: in assay [1], the “% Normalised Fluorescence with polyAU RNA” value came out at 13%. Further, in assay [2], the “% Normalised Fluorescence with gDNA” value was 32%. Besides, the MIC80 in assay [3] was less than 5 µM; in assay [4], more than 100 µM; in assay [5], 5 to 25 µM (≈ 3.63 to 18.1 µg/mL).
For `CN1CCN(CCNC(=N)CCNC(=O)c2cc(NC(=O)c3cc(NC(=O)c4ccc(/C=C/c5cnc6ccccc6c5)cc4)cn3C)cn2C)CC1` [Ia41, (E)-N-(3-imino-3-((2-(4-methylpiperazin-1-yl)ethyl)amino)propyl)-1-methyl-4-(1-methyl-4-(4-(2-(quinolin-3-yl)vinyl)benzamido)-1H-pyrrole-2-carboxamido)-1H-pyrrole-2-carboxamide], in that order: 6%, 16%, 5 to 25 µM (≈ 3.57 to 17.9 µg/mL), more than 100 µM and 25 to 100 µM (≈ 17.9 to 71.5 µg/mL).
Taken in the same sequence, the figures for `[H]/N=C(\CCNC(=O)c1cc(NC(=O)c2cc(NC(=O)c3ccc(C=Cc4ccc5nonc5c4)cc3)cn2C)cn1C)NCCN1CCN(C)CC1` [Ia42, (E)-4-(4-(2-(benzo[c][1,2,5]oxadiazol-5-yl)vinyl)benzamido)-N-(5-((3-imino-3-((2-(4-methylpiperazin-1-yl)ethyl)amino)propyl)carbamoyl)-1-methyl-1H-pyrrol-3-yl)-1-methyl-1H-pyrrole-2-carboxamide] were 4%, 20%, 5 to 25 µM (≈ 3.53 to 17.6 µg/mL), more than 100 µM and 5 to 25 µM (≈ 3.53 to 17.6 µg/mL).
For `[H]/N=C(\CCNC(=O)c1cc(NC(=O)c2cc(NC(=O)c3ccc(C=Cc4ccc5nonc5c4)cc3)cn2C)cn1C)NCCc1ccccc1` [Ia43, (E)-4-(4-(2-(benzo[c][1,2,5]oxadiazol-5-yl)vinyl)benzamido)-N-(5-((3-imino-3-(phenethylamino)propyl)carbamoyl)-1-methyl-1H-pyrrol-3-yl)-1-methyl-1H-pyrrole-2-carboxamide], in assay [1], the “% Normalised Fluorescence with polyAU RNA” value came out at 42%. For the same compound, the “% Normalised Fluorescence with gDNA” value in assay [2] stood at 15%. Moreover, the values for the MIC80 in assay [3], in assay [4] and in assay [5] were less than 5 µM, more than 100 µM and less than 5 µM, respectively.
In the case of `CCCCCCC[N+](C)(C)CCNC(=O)c1cc(NC(=O)c2cc(NC(=O)c3ccc(/C=C/c4cnc5ccccc5c4)cc3)cn2C)cn1C` [Ic6, (E)-N,N-dimethyl-N-(2-(1-methyl-4-(1-methyl-4-(4-(2-(quinolin-3-yl)vinyl)benzamido)-1H-pyrrole-2-carboxamido)-1H-pyrrole-2-carboxamido)ethyl)heptan-1-aminium], in assay [1], the “% Normalised Fluorescence with polyAU RNA” value amounted to 12%. In addition, the “% Normalised Fluorescence with gDNA” value in assay [2] was 50%. The “MIC80 S. aureus” value in assay [3] (MIC at 80% inhibition, ATCC 43300) is “*** (*** means MIC80 <= 5 μM)”. Moreover, the “MIC80 E. coli” value in assay [4] (MIC at 80% inhibition, ATCC 25922) is recorded as “— (— means MIC80 > 100 μM)”. Besides, in assay [5] (MIC at 80% inhibition, ATCC 51299), the “MIC80 E. faecalis” value is “** (** means 5 μM < MIC80 <= 25 μM)”.

Source of the values: patent US20250313546A1, “NUCLEIC ACID BINDERS” (UNIVERSITY OF STRATHCLYDE, priority 2022, published 2025).
